Experimental data reported in ChEMBL document CHEMBL1201861, “Genomics of Drug Sensitity in Cancer screening data, Wellcome Trust Sanger Institute”.

How the values were obtained:
Test in all cases: cells
Assay type in all cases: functional, cell-based
Details in all cases: Homo sapiens
RKO = test system: RKO;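 also: growth inhibition of human RKO cells, read out with a cell viability assay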
Description: SANGER: Inhibition of human RKO cell growth in a cell viability assay.

ES7 = test system: ES7;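 also: growth inhibition of cultured human ES7 cells, read out as cell viability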
Description: SANGER: Inhibition of human ES7 cell growth in a cell viability assay.

CGTH-W-1 = test system: CGTH-W-1;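 also: growth inhibition of human CGTH-W-1 cells measured by cell viability assay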
Description: SANGER: Inhibition of human CGTH-W-1 cell growth in a cell viability assay.

IA-LM = test system: IA-LM;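 also: cell viability assay measuring growth inhibition of human IA-LM cells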
Description: SANGER: Inhibition of human IA-LM cell growth in a cell viability assay.

RCC10RGB = test system: RCC10RGB;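 also: growth inhibition of human RCC10RGB cells, read out by a cell viability assay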
Description: SANGER: Inhibition of human RCC10RGB cell growth in a cell viability assay.

DSH1 = test system: DSH1;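 also: growth inhibition of human DSH1 cells, measured with a cell viability readout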
Description: SANGER: Inhibition of human DSH1 cell growth in a cell viability assay.

NCI-H1092 = test system: NCI-H1092;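 also: cell growth inhibition measured with a cell viability assay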
Description: SANGER: Inhibition of human NCI-H1092 cell growth in a cell viability assay.

MZ7-mel = test system: MZ7-mel;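 also: growth inhibition of human MZ7-mel cells, measured by a cell viability assay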
Description: SANGER: Inhibition of human MZ7-mel cell growth in a cell viability assay.

Ramos-2G6-4C10 = test system: Ramos-2G6-4C10;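 also: growth inhibition of the cell line, measured by a cell viability read-out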
Description: SANGER: Inhibition of human Ramos-2G6-4C10 cell growth in a cell viability assay.

TE-9 = test system: TE-9;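 also: cell growth inhibition, measured with a cell viability readout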
Description: SANGER: Inhibition of human TE-9 cell growth in a cell viability assay.

EW-1 = test system: EW-1;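 also: growth inhibition of the human EW-1 cell line, read out by a cell viability assay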
Description: SANGER: Inhibition of human EW-1 cell growth in a cell viability assay.

MFM-223 = test system: MFM-223
Description: SANGER: Inhibition of human MFM-223 cell growth in a cell viability assay.

HT-144 = test system: HT-144
Description: SANGER: Inhibition of human HT-144 cell growth in a cell viability assay.

A101D = test system: A101D;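 also: growth inhibition of the cell line, measured with a viability assay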
Description: SANGER: Inhibition of human A101D cell growth in a cell viability assay.

MZ1-PC = test system: MZ1-PC;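 also: cell viability assay measuring growth inhibition of human MZ1-PC cells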
Description: SANGER: Inhibition of human MZ1-PC cell growth in a cell viability assay.

HC-1 = test system: HC-1;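 also: growth inhibition of HC-1 cells measured by a cell viability assay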
Description: SANGER: Inhibition of human HC-1 cell growth in a cell viability assay.

LB373-MEL-D = test system: LB373-MEL-D;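 also: growth inhibition of the cell line, read out in a cell viability assay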
Description: SANGER: Inhibition of human LB373-MEL-D cell growth in a cell viability assay.

OCUB-M = test system: OCUB-M;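 also: growth inhibition of the cancer cell line, read out through a cell viability assay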
Description: SANGER: Inhibition of human OCUB-M cell growth in a cell viability assay.

LB771-HNC = test system: LB771-HNC;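 also: growth inhibition of LB771-HNC human cells, read out with a cell viability assay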
Description: SANGER: Inhibition of human LB771-HNC cell growth in a cell viability assay.

697 = test system: 697
Description: SANGER: Inhibition of human 697 cell growth in a cell viability assay.

NCI-H1838 = test system: NCI-H1838;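 also: growth inhibition of NCI-H1838 cells, determined with a cell viability readout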
Description: SANGER: Inhibition of human NCI-H1838 cell growth in a cell viability assay.

OVCAR-4 = test system: OVCAR-4;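 also: growth inhibition of human OVCAR-4 cells, measured with a cell viability assay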
Description: SANGER: Inhibition of human OVCAR-4 cell growth in a cell viability assay.

NCI-H82 = test system: NCI-H82;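 also: growth inhibition of NCI-H82 cells, measured with a cell viability readout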
Description: SANGER: Inhibition of human NCI-H82 cell growth in a cell viability assay.

8-MG-BA = test system: 8-MG-BA;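 also: growth inhibition of 8-MG-BA cells, read out with a cell viability assay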
Description: SANGER: Inhibition of human 8-MG-BA cell growth in a cell viability assay.

NCI-H226 = test system: NCI-H226;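 also: cell viability read-out used to gauge growth inhibition of the cells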
Description: SANGER: Inhibition of human NCI-H226 cell growth in a cell viability assay.

UACC-257 = test system: UACC-257
Description: SANGER: Inhibition of human UACC-257 cell growth in a cell viability assay.

SNU-5 = test system: SNU-5;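 also: cell viability readout used to measure growth inhibition in human NCI-SNU-5 cells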
Description: SANGER: Inhibition of human NCI-SNU-5 cell growth in a cell viability assay.

KMOE-2 = test system: KMOE-2;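 also: growth inhibition of human KMOE-2 cells, read out with a cell viability assay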
Description: SANGER: Inhibition of human KMOE-2 cell growth in a cell viability assay.

LS-513 = test system: LS-513
Description: SANGER: Inhibition of human LS-513 cell growth in a cell viability assay.

HT = test system: HT
Description: SANGER: Inhibition of human HT cell growth in a cell viability assay.

K562 = test system: K562
Description: SANGER: Inhibition of human K-562 cell growth in a cell viability assay.

ES1 = test system: ES1;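 also: growth inhibition of ES1 cells, read out with a cell viability assay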
Description: SANGER: Inhibition of human ES1 cell growth in a cell viability assay.

CCRF-CEM = test system: CCRF-CEM;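 also: inhibition of CCRF-CEM cell growth, measured by a cell viability assay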
Description: SANGER: Inhibition of human CCRF-CEM cell growth in a cell viability assay.

DB = test system: DB
Description: SANGER: Inhibition of human DB cell growth in a cell viability assay.

SF-268 = test system: SF-268;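 also: growth inhibition of SF-268 cells determined with a cell viability assay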
Description: SANGER: Inhibition of human SF268 cell growth in a cell viability assay.

KARPAS-299 = test system: KARPAS-299
Description: SANGER: Inhibition of human KARPAS-299 cell growth in a cell viability assay.

NCI-H446 = test system: NCI-H446;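 also: growth inhibition of NCI-H446 cells determined by a cell viability assay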
Description: SANGER: Inhibition of human NCI-H446 cell growth in a cell viability assay.

BB30-HNC = test system: BB30-HNC;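 also: growth inhibition of the cultured cell line, read out by a cell viability assay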
Description: SANGER: Inhibition of human BB30-HNC cell growth in a cell viability assay.

LAN-6 = test system: LAN-6;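 also: growth inhibition of LAN-6 cells, determined with a cell viability assay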
Description: SANGER: Inhibition of human LAN-6 cell growth in a cell viability assay.

MC116 = test system: MC116;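 also: growth inhibition of MC116 cells, read out with a cell viability assay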
Description: SANGER: Inhibition of human MC116 cell growth in a cell viability assay.

NCI-H1650 = test system: NCI-H1650;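 also: growth inhibition of human NCI-H1650 cells measured by a cell viability assay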
Description: SANGER: Inhibition of human NCI-H1650 cell growth in a cell viability assay.

BT-474 = test system: BT-474
Description: SANGER: Inhibition of human BT-474 cell growth in a cell viability assay.

LB2518-MEL = test system: LB2518-MEL;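 also: growth inhibition of human LB2518-MEL cells, measured with a cell viability assay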
Description: SANGER: Inhibition of human LB2518-MEL cell growth in a cell viability assay.

NMC-G1 = test system: NMC-G1;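 also: growth inhibition of the NMC-G1 cell line, measured with a cell viability read-out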
Description: SANGER: Inhibition of human NMC-G1 cell growth in a cell viability assay.

LOX IMVI = test system: LOX IMVI
Description: SANGER: Inhibition of human LOXIMVI cell growth in a cell viability assay.

NH-12 = test system: NH-12;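 also: growth inhibition of NH-12 cells, read out with a cell viability assay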
Description: SANGER: Inhibition of human NH-12 cell growth in a cell viability assay.

NB5 = test system: NB5;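 also: growth inhibition of NB5 cells, read out as cell viability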
Description: SANGER: Inhibition of human NB5 cell growth in a cell viability assay.

PSN1 = test system: PSN1;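 also: suppression of growth of human PSN1 cells, read out by a cell viability assay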
Description: SANGER: Inhibition of human PSN1 cell growth in a cell viability assay.

TE-6 = test system: TE-6;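 also: growth inhibition of TE-6 cells, read out with a cell viability assay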
Description: SANGER: Inhibition of human TE-6 cell growth in a cell viability assay.

TE-10 = test system: TE-10;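 also: growth inhibition of TE-10 cells, measured by a cell viability assay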
Description: SANGER: Inhibition of human TE-10 cell growth in a cell viability assay.

RPMI-8226 = test system: RPMI-8226
Description: SANGER: Inhibition of human RPMI-8226 cell growth in a cell viability assay.

TE-8 = test system: TE-8;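 also: growth inhibition of TE-8 cells, measured with a cell viability readout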
Description: SANGER: Inhibition of human TE-8 cell growth in a cell viability assay.

LC-2-ad = test system: LC-2-ad;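 also: growth inhibition of human LC-2-ad cells, read out with a cell viability assay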
Description: SANGER: Inhibition of human LC-2-ad cell growth in a cell viability assay.

LU-139 = test system: LU-139
Description: SANGER: Inhibition of human LU-139 cell growth in a cell viability assay.

SK-UT-1 = test system: SK-UT-1;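 also: growth inhibition of SK-UT-1 cells, measured by a cell viability assay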
Description: SANGER: Inhibition of human SK-UT-1 cell growth in a cell viability assay.

LXF-289 cell line = test system: LXF-289 cell line
Description: SANGER: Inhibition of human LXF-289 cell growth in a cell viability assay.

MLMA = test system: MLMA;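 also: growth inhibition of MLMA cells (human), determined through a cell viability readout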
Description: SANGER: Inhibition of human MLMA cell growth in a cell viability assay.

OCI-AML2 = test system: OCI-AML2;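 also: growth inhibition of OCI-AML2 cells, read out with a cell viability assay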
Description: SANGER: Inhibition of human OCI-AML2 cell growth in a cell viability assay.

NB6 = test system: NB6;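 also: growth inhibition of NB6 cells, read out by a cell viability assay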
Description: SANGER: Inhibition of human NB6 cell growth in a cell viability assay.

MMAC-SF = test system: MMAC-SF;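 also: growth inhibition of human MMAC-SF cells, read out with a cell viability assay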
Description: SANGER: Inhibition of human MMAC-SF cell growth in a cell viability assay.

Mo = test system: Mo
Description: SANGER: Inhibition of human Mo-T cell growth in a cell viability assay.

GR-ST = test system: GR-ST
Description: SANGER: Inhibition of human GR-ST cell growth in a cell viability assay.

BE-13 = test system: BE-13;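 also: growth inhibition of human BE-13 cells, measured with a cell viability assay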
Description: SANGER: Inhibition of human BE-13 cell growth in a cell viability assay.

NCI-H1304 = test system: NCI-H1304;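 also: growth inhibition of the cancer cell line, measured in a cell viability assay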
Description: SANGER: Inhibition of human NCI-H1304 cell growth in a cell viability assay.

SK-PN-DW = test system: SK-PN-DW;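 also: growth inhibition measured with a viability assay on these cells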
Description: SANGER: Inhibition of human SK-PN-DW cell growth in a cell viability assay.

SNU-C2B = test system: SNU-C2B;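 also: cell viability readout used to measure compound-driven suppression of SNU-C2B cell proliferation, IC50 marking half-maximal growth inhibition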
Description: SANGER: Inhibition of human SNU-C2B cell growth in a cell viability assay.

SMILES: O=c1[nH]c2ccccc2n1C1CCN(Cc2ccc(-c3nc4cc5[nH]cnc5cc4nc3-c3ccccc3)cc2)CC1
- IC50 (RKO): > 2560 nM
- IC50 (ES7): 1350 nM
- IC50 (CGTH-W-1): > 2560 nM
- IC50 (IA-LM): > 2560 nM
- IC50 (RCC10RGB): > 2560 nM
- IC50 (DSH1): 987 nM
- IC50 (NCI-H1092): > 2560 nM
- IC50 (MZ7-mel): > 2560 nM
- IC50 (Ramos-2G6-4C10): > 2560 nM
- IC50 (TE-9): > 2560 nM
- IC50 (EW-1): > 2560 nM
- IC50 (MFM-223): > 2560 nM
- IC50 (HT-144): > 2560 nM
- IC50 (A101D): > 2560 nM
- IC50 (MZ1-PC): > 2560 nM
- IC50 (HC-1): > 2560 nM
- IC50 (LB373-MEL-D): > 2560 nM
- IC50 (OCUB-M): > 2560 nM
- IC50 (LB771-HNC): > 2560 nM
- IC50 697: > 2560 nM
- IC50 (NCI-H1838): > 2560 nM
- IC50 (OVCAR-4): > 2560 nM
- IC50 (NCI-H82): > 2560 nM
- IC50 (8-MG-BA): > 2560 nM
- IC50 (NCI-H226): > 2560 nM
- IC50 (UACC-257): > 2560 nM
- IC50 (SNU-5): > 2560 nM
- IC50 (KMOE-2): > 2560 nM
- IC50 (LS-513): > 2560 nM
- IC50 (HT): > 2560 nM
- IC50 (K562): > 2560 nM
- IC50 (ES1): > 2560 nM
- IC50 (CCRF-CEM): > 2560 nM
- IC50 (DB): > 2560 nM
- IC50 (SF-268): > 2560 nM
- IC50 (KARPAS-299): > 2560 nM
- IC50 (NCI-H446): > 2560 nM
- IC50 (BB30-HNC): > 2560 nM
- IC50 (LAN-6): > 2560 nM
- IC50 (MC116): > 2560 nM
- IC50 (NCI-H1650): > 2560 nM
- IC50 (BT-474): > 2560 nM
- IC50 (LB2518-MEL): > 2560 nM
- IC50 (NMC-G1): > 2560 nM
- IC50 (LOX IMVI): > 2560 nM
- IC50 (NH-12): 609 nM
- IC50 (NB5): > 2560 nM
- IC50 (PSN1): > 2560 nM
- IC50 (TE-6): > 2560 nM
- IC50 (TE-10): > 2560 nM
- IC50 (RPMI-8226): > 2560 nM
- IC50 (TE-8): > 2560 nM
- IC50 (LC-2-ad): > 2560 nM
- IC50 (LU-139): > 2560 nM
- IC50 (SK-UT-1): 1350 nM
- IC50 (LXF-289 cell line): 1760 nM
- IC50 (MLMA): > 2560 nM
- IC50 (OCI-AML2): > 2560 nM
- IC50 (NB6): > 2560 nM
- IC50 (MMAC-SF): > 2560 nM
- IC50 (Mo): > 2560 nM
- IC50 (GR-ST): > 2560 nM
- IC50 (BE-13): > 2560 nM
- IC50 (NCI-H1304): > 2560 nM
- IC50 (SK-PN-DW): > 2560 nM
- IC50 (SNU-C2B): > 2560 nM

SMILES: Fc1cc(-c2cc[nH]/c(=N/c3ccc(-n4cnc(N5CCOCC5)n4)cc3)n2)cc(N2CCOCC2)c1
- IC50 (RKO): 117 nM
- IC50 (ES7): 325 nM
- IC50 (CGTH-W-1): 82.5 nM
- IC50 (IA-LM): 371 nM
- IC50 (RCC10RGB): 889 nM
- IC50 (DSH1): 709 nM
- IC50 (NCI-H1092): 1760 nM
- IC50 (MZ7-mel): 2900 nM
- IC50 (Ramos-2G6-4C10): 393 nM
- IC50 (TE-9): 69.2 nM
- IC50 (EW-1): 546 nM
- IC50 (MFM-223): > 5120 nM
- IC50 (HT-144): 147 nM
- IC50 (A101D): 245 nM
- IC50 (MZ1-PC): 195 nM
- IC50 (HC-1): 301 nM
- IC50 (LB373-MEL-D): 2190 nM
- IC50 (OCUB-M): 3030 nM
- IC50 (LB771-HNC): 77.7 nM
- IC50 697: 373 nM
- IC50 (NCI-H1838): > 5120 nM
- IC50 (OVCAR-4): 467 nM
- IC50 (NCI-H82): > 5120 nM
- IC50 (8-MG-BA): 116 nM
- IC50 (NCI-H226): 1430 nM
- IC50 (UACC-257): 1240 nM
- IC50 (SNU-5): > 5120 nM
- IC50 (KMOE-2): 1070 nM
- IC50 (LS-513): 1140 nM
- IC50 (HT): 633 nM
- IC50 (K562): > 5120 nM
- IC50 (ES1): 685 nM
- IC50 (CCRF-CEM): 364 nM
- IC50 (DB): 611 nM
- IC50 (SF-268): 537 nM
- IC50 (KARPAS-299): 380 nM
- IC50 (NCI-H446): 1140 nM
- IC50 (BB30-HNC): 122 nM
- IC50 (LAN-6): 1770 nM
- IC50 (MC116): 411 nM
- IC50 (NCI-H1650): 624 nM
- IC50 (BT-474): 1130 nM
- IC50 (LB2518-MEL): 540 nM
- IC50 (NMC-G1): 1100 nM
- IC50 (LOX IMVI): 477 nM
- IC50 (NH-12): 465 nM
- IC50 (NB5): > 5120 nM
- IC50 (PSN1): > 5120 nM
- IC50 (TE-6): 2000 nM
- IC50 (TE-10): 305 nM
- IC50 (RPMI-8226): 1030 nM
- IC50 (TE-8): 831 nM
- IC50 (LC-2-ad): 350 nM
- IC50 (LU-139): 1970 nM
- IC50 (SK-UT-1): 61.6 nM
- IC50 (LXF-289 cell line): 797 nM
- IC50 (MLMA): 484 nM
- IC50 (OCI-AML2): 498 nM
- IC50 (NB6): 912 nM
- IC50 (MMAC-SF): 2480 nM
- IC50 (Mo): 1650 nM
- IC50 (GR-ST): 647 nM
- IC50 (BE-13): 1100 nM
- IC50 (NCI-H1304): 1430 nM
- IC50 (SK-PN-DW): 669 nM
- IC50 (SNU-C2B): 637 nM
